The values below come from US7129266B2, “Antibiotic Cyan426-A” (Wyeth Holdings Corporation, priority 2002, dated 2006).

By MIC is commonly meant the lowest concentration that inhibits growth of the organism.

What all share (assay): In vitro antibacterial test, MIC by broth dilution
Common to all, as to format: cell-based
Background: In broth dilution the organism is exposed to a series of concentrations in liquid medium.

The subject of one assay is Streptococcus pneumoniae. Conditions: 18 h. The protocol: (§1) The minimum inhibitory concentration (MIC), the lowest concentration of the antibiotic which inhibits growth of the test organism, is determined by the broth dilution method using Muller-Hinton II […] (Baltimore Biological Laboratories) following the recommendations of the National Committee for Clinical Laboratory Standards [Methods for dilution antimicrobial susceptibility tests for bacteria that grow aerobically. Approved standard M7-A2. National Committee for Clinical Laboratory Standards, Villanova, Pa.].
(§2) An inoculum level of 5×10^5 CFU/ml, and a range of antibiotic concentrations (64–0.06 μg/ml) is used. The MIC is determined after the microtiter plates are incubated for 18 hours at 35° C. in an ambient air incubator. The test organisms comprise a spectrum of Gram-positive bacteria Staphylococcus sp., Streptococcus pneumoniae, Enterococcus sp., Gram-negative bacteria Escherichia coli, and the yeast Candida albicans. These organisms include recent clinical isolates that are resistant to piperacillin or vancomycin.

A further assay concerns Escherichia coli. Conditions: 18 hours at 35° C. As to the method: as §1, §2
In assay [1] the test system is Staphylococcus haemolyticus. Conditions: Staphylococcus haemolyticus GC 4547, resistant to methicillin; 18 hours at 35° C. As to the method: as §1, §2
The next assay has as its system Enterococcus faecium. Conditions: 18 h. The protocol: as §1, §2
Another assay concerns Staphylococcus aureus. Conditions: 18 h. As to the method:
as §1, §2

The subject of a further assay is Enterococcus faecalis. Conditions: 18 hours at 35° C. The protocol:
as §1, §2

In the next assay the test system is Candida albicans. Conditions: Candida albicans GC 3066; 18 hours at 35° C. As to the method: as §1, §2

SMILES strings stand for the structures. ≈ marks a conversion by molar mass, not a printed value. Where two headings read alike, the source gives them in different places.

On to `C=CC1C=C(C)C2C3C(Oc4ccc(cc4)CC4(O)C=C(C(=O)N4)C(=O)C13)C1C(C)CC(C)CC21C` (stereo not shown) [Cyan426-A], for which the MIC in the assay with Streptococcus pneumoniae (Streptococcus pneumoniae GC 1894, 18 hours at 35° C.) is 64 µg/mL (≈ 131 µM); against Streptococcus pneumoniae (Streptococcus pneumoniae GC 6242, 18 hours at 35° C.) it was 16 µg/mL (≈ 32.8 µM); with Escherichia coli (Escherichia coli GC 4559, read-out: MIC), 128 µg/mL (≈ 262 µM); against Escherichia coli (Escherichia coli, 18 h, Escherichia coli GC 4560 (imp)), 2 µg/mL (≈ 4.1 µM); in assay [1], 0.25 µg/mL (≈ 0.513 µM); against Enterococcus faecium (Enterococcus faecium GC 2243, marked * (resistant to methicillin), 18 hours at 35° C.), 1 µg/mL (≈ 2.05 µM). The MIC was determined as 1 µg/mL (≈ 2.05 µM) in the assay on Enterococcus faecium (Enterococcus faecium GC 4556, 18 hours at 35° C.); 0.5 µg/mL (≈ 1.03 µM) against Enterococcus faecium (Enterococcus faecium GC 4558, marked * (resistant to methicillin), 18 hours at 35° C.); 2 µg/mL (≈ 4.1 µM) with Staphylococcus aureus (Staphylococcus aureus GC 1131, resistant to methicillin, 18 hours at 35° C.); 1 µg/mL (≈ 2.05 µM) in the assay on Staphylococcus aureus (Staphylococcus aureus GC 2216, 18 hours at 35° C.); 0.25 µg/mL (≈ 0.513 µM) against Staphylococcus aureus (Staphylococcus aureus GC 4541, resistant to methicillin, 18 hours at 35° C.); 1 µg/mL (≈ 2.05 µM) in the assay on Staphylococcus aureus (Staphylococcus aureus GC 4543, 18 hours at 35° C.). The MIC was determined as 0.50 µg/mL (≈ 1.03 µM) against Enterococcus faecalis (Enterococcus faecalis GC 2242, resistant to vancomycin); 0.50 µg/mL (≈ 1.03 µM) in the assay on Enterococcus faecalis (Enterococcus faecalis GC 4555); 0.5 µg/mL (≈ 1.03 µM) in the assay with Enterococcus faecalis (Enterococcus faecalis GC 6189, read-out: MIC); 8 µg/mL (≈ 16.4 µM) in the assay on Candida albicans.
